The record followed here is US7678917B2, “Factor Xa inhibitors” (Hoffman-La Roche Inc., priority 2005, dated 2010).

T1 sequence (P00742 235-488 limits assumed): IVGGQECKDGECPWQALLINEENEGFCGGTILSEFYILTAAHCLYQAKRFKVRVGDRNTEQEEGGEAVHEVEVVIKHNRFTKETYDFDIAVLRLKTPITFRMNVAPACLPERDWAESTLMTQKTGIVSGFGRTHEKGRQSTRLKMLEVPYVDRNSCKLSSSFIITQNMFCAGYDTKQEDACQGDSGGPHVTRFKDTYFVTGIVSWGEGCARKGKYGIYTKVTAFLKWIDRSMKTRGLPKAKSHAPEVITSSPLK
T1 sequence (P00742 41-179 partner limits assumed): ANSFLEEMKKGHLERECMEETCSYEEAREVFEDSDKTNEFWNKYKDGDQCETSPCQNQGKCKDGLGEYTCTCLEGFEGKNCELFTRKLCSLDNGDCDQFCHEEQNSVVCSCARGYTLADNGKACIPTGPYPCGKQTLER

This test concerns the target T1, human factor Xa (Homo sapiens, UniProt P00742).
T1 construct: purchased Enzyme Research Laboratories
Nature of the test: chromogenic peptide substrate assay, inhibition of factor Xa. The test is classed as biochemical. Particulars: human factor Xa 3 nM, chromogenic substrate S-2222, pH 7.8, room temperature; apparent Ki from IC50 by Cheng-Prusoff. As for the experimental part:
Factor Xa activity was measured spectrophotometrically in microtiter plates in a final volume of 150 μl using the following conditions: Inhibition of human factor Xa (Enzyme Research Laboratories) was tested at an enzyme concentration of 3 nM using the chromogenic substrate S-2222 (Chromogenix AB, Mölndal, Sweden) at […]. The reaction kinetics of the enzyme and the substrate were linear with both time and the enzyme concentration. The inhibitors were dissolved in DMSO and tested at various concentrations up to 100 μM. The inhibitors were diluted using HNPT buffer consisting of HEPES 100 mM, NaCl 140 mM, PEG 6000 0.1% and Tween 80 0.02%, pH 7.8. The cleavage of S-2222 by human factor Xa was followed at 405 nm for 5 minutes at room temperature. The velocity of the reaction was determined by the autoreader from the slope of the linear regression fit to 7 time points (1 minute). The initial velocity for each inhibitor concentration was determined by the slope of at least 4 time points in the linear phase by a linear regression fit […]. Apparent dissociation constants Ki were calculated according to Cheng and Prusoff [Cheng, Y. C.; Prusoff, W. H. Relationship between the inhibition constant (Ki) and the concentration of the inhibitor that causes 50 percent inhibition (IC50) of an enzyme reaction. Biochem. Pharmacol. 1973, 22, 3099-3108.] based on the IC50 and the respective Km, determined previously (Ki=IC50/(1+S/Km)). […] [Lottenberg R, Hall J A, Blinder M, Binder E P, Jackson C M., The action of thrombin on peptide p-nitroanilide substrates. Substrate selectivity and examination of hydrolysis under different reaction conditions. Biochim Biophys Acta. 1983 Feb. 15; 742(3):539-57]. According to Eadie [Eadie G. S. The inhibition of cholinesterase by physostigmine and prostigmine. J. Biol. Chem. 1942, 146, 85-93.], the Km for S-2222 amounted to 613 μM.
For `CCO[C@H]1C[C@H](C(=O)Nc2ccc(-n3ccccc3=O)cc2F)C[C@@H]1NC(=O)c1ccc(Cl)s1` [Example 13B, 5-chloro-thiophene-2-carboxylic acid {(1S,2S,4R)-2-ethoxy-4-[2-fluoro-4-(2-oxo-2H-pyridin-1-yl)-phenylcarbamoyl]-cyclopentyl}-amide], the Ki is 0.006 µM.

Turning to `O=C(N[C@H]1C[C@@H](C(=O)Nc2ccc(-n3ccncc3=O)cc2F)C[C@@H]1O)c1ccc(Cl)s1` [Example 5, 5-chloro-thiophene-2-carboxylic acid {(1S,2S,4R)-4-[2-fluoro-4-(2-oxo-2H-pyrazin-1-yl)-phenylcarbamoyl]-2-hydroxy-cyclopentyl}-amide], the Ki is 0.018 µM.

In the case of `O=C(NC[C@H]1C[C@H](C(=O)Nc2ccc(-n3ccccc3=O)cc2F)C[C@@H]1O)c1ccc(Cl)s1` (racemic) [Example 15C], the Ki is 0.03 µM.

Turning to `O=C(N[C@H]1C[C@@H](C(=O)Nc2ccc(-n3ccccc3=O)cc2F)C[C@@H]1O)c1ccc(Cl)s1` [Example 1C, 5-chloro-thiophene-2-carboxylic acid {(1S,2S,4R)-4-[2-fluoro-4-(2-oxo-2H-pyridin-1-yl)-phenylcarbamoyl]-2-hydroxy-cyclopentyl}-amide], the Ki was found to be 0.015 µM.
